Assay [1] deals with T1, human recombinant CBL-b (human Biotin CBL-b recombinant protein a.a. 39-426) (Homo sapiens, UniProt Q13191).
T1 construct: human Biotin CBL-b recombinant protein a.a; 39-426; Biotin (biotinylated); made in house
The assay is described as follows: Biochemical assay for CBL-b inhibition (ligand displacement TR-FRET). It is filed as binding. The settings on record: 50 nM CBL-b, 0.3 μM Bodipy FL-Probe, read-out: IC50 (CBL-b inhibition, group). The gist of the method:
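Biotinylated CBL-b (a.a. 39-426, 50 nM final) pre-incubated with compound 60 min at RT in HEPES/NaCl/Triton/BSA/TCEP buffer, then Bodipy FL probe (0.3 μM final) 60 min, then terbium-streptavidin 60 min. TR-FRET read at 665/615 nm; IC50 and % max inhibition from sigmoidal fits.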
A general note: In TR-FRET formats the signal depends on donor and acceptor labels being close together.

Assay [2] relates to NFAT signaling pathway in Jurkat NFAT reporter cells. The assay is described as follows: Jurkat NFAT reporter assay. It is filed as cell-based. The settings on record: Homo sapiens, 30 min with compound, then soluble anti-human CD3/CD28 antibody for 6 hours, luciferase readout, read-out: EC50 (Group). Here is the method: A human T lymphocyte Jurkat reporter cell line was further used to assess activation of the nuclear factor of activated T-cells (NFAT) signaling pathway by Cbl-b inhibitors. The reporter cell line is a genetically engineered Jurkat T cell line that expresses a luciferase reporter driven by an NFAT-response element (NFAT-RE). The Cbl-b inhibitor was incubated with 1×10^5 Jurkat NFAT reporter cells per well for 30 minutes. Subsequently, cells were stimulated with soluble anti-human CD3/CD28 antibody for 6 hours resulting in NFAT-RE-mediated luminescence. The bioluminescent signal is detected and quantified using Bio-Glo™ Luciferase Assay System. Readouts were reported as fold change over baseline. Here, baseline was the measurement obtained from Jurkat NFAT reporter cells stimulated with anti-CD3 antibody and anti-CD28 antibody, where the cells were not incubated with a Cbl-b inhibitor.

Molecules are shown by their SMILES.

T1 sequence (Q13191 39-426): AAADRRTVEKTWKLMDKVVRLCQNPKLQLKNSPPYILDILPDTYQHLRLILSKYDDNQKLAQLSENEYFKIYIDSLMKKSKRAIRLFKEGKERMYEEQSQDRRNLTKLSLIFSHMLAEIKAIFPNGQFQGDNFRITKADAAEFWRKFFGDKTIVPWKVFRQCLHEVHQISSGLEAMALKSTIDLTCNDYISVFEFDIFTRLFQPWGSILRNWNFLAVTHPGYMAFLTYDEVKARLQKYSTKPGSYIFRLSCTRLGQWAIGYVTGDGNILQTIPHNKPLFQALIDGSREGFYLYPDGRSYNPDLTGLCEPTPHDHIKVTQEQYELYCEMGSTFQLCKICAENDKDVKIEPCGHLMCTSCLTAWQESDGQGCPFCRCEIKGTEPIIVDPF

As a reminder, the IC50 is the concentration at which inhibition is half-maximal. The term EC50 denotes the concentration that produces a half-maximal response. As to `C[C@@H]1C[C@H](C)CN(Cc2cc(N3Cc4ccc([C@@H](C)Cc5nncn5C)cc4C3=O)nc(C(F)(F)F)c2)C1` (single isomer, unassigned) [Compound 86], the 50% inhibitory concentration (IC50) in assay [1] is below 80 nM. In addition, the concentration giving a half-maximal response (EC50) in assay [2] was below 300 nM.
For `C[C@@H]1C[C@H](C)CN(Cc2cc(N3Cc4ccc([C@H](C)Cc5nncn5C)cc4C3=O)nc(C(F)(F)F)c2)C1` (single isomer, unassigned) [Compound 87], in that order: 80 to 300 nM and 300 to 1000 nM.
For `C[C@H]1CCCN(Cc2cc(Cl)nc(N3Cc4ccc([C@H](C)Cc5nncn5C)cc4C3=O)c2)C1` (single isomer, unassigned) [Compound 90], the IC50 in assay [1] was below 80 nM. Besides, the EC50 in assay [2] was below 300 nM.
For `C[C@H]1CCCN(Cc2cc(Cl)nc(N3Cc4ccc([C@@H](C)Cc5nncn5C)cc4C3=O)c2)C1` (single isomer, unassigned) [Compound 91], in that order: below 80 nM and below 300 nM.
For `CC(NC1CCCC1)c1cc(Cl)nc(N2Cc3ccc(-c4ccc(Cl)cc4-c4nncn4C)cc3C2=O)c1` (single isomer, unassigned) [Compound 104, 6-(4-Chloro-2-(4-methyl-4H-1,2,4-triazol-3-yl)phenyl)-2-(6-chloro-4-(1-(cyclo-pentylamino)ethyl)pyridin-2-yl)isoindolin-1-one], in that order: below 80 nM and below 300 nM.
For `C[C@H](NC1CCCC1)c1cc(Cl)nc(N2Cc3ccc(-c4ccc(Cl)cc4-c4nncn4C)cc3C2=O)c1` (single isomer, unassigned) [Compound 105, 6-(4-Chloro-2-(4-methyl-4H-1,2,4-triazol-3-yl)phenyl)-2-(6-chloro-4-(1-(cyclo-pentylamino)ethyl)pyridin-2-yl)isoindolin-1-one], in that order: below 80 nM and below 300 nM.
For the molecule `C[C@@H](NCc1cc(Cl)nc(N2Cc3ccc(-c4ccc(Cl)cc4-c4nncn4C)cc3C2=O)c1)C1CC1` (single isomer, unassigned) [Compound 108, 6-(4-Chloro-2-(4-methyl-4H-1,2,4-triazol-3-yl)phenyl)-2-(6-chloro-4-(((1-cyclo-propylethyl)amino)methyl)pyridin-2-yl)isoindolin-1-one], in assay [1], the 50% inhibitory concentration (IC50) is below 80 nM. Moreover, the EC50 in assay [2] is below 300 nM.
Take `C[C@H](NCc1cc(Cl)nc(N2Cc3ccc(-c4ccc(Cl)cc4-c4nncn4C)cc3C2=O)c1)C1CC1` (single isomer, unassigned) [Compound 109, 6-(4-Chloro-2-(4-methyl-4H-1,2,4-triazol-3-yl)phenyl)-2-(6-chloro-4-(((1-cyclo-propylethyl)amino)methyl)pyridin-2-yl)isoindolin-1-one]: the IC50 in assay [1] is below 80 nM. The concentration for a half-maximal effect (EC50) in assay [2] is below 300 nM.
With `C[C@@H](NCC1CC1)c1cc(Cl)nc(N2Cc3ccc(-c4ccc(Cl)cc4-c4nncn4C)cc3C2=O)c1` (single isomer, unassigned) [Compound 110, 6-(4-Chloro-2-(4-methyl-4H-1,2,4-triazol-3-yl)phenyl)-2-(6-chloro-4-(1-((cyclo-propylmethyl)amino)ethyl)pyridin-2-yl)isoindolin-1-one], the 50% inhibitory concentration (IC50) in assay [1] is below 80 nM. The EC50 in assay [2] was below 300 nM.
For `C[C@H](NCC1CC1)c1cc(Cl)nc(N2Cc3ccc(-c4ccc(Cl)cc4-c4nncn4C)cc3C2=O)c1` (single isomer, unassigned) [Compound 111, 6-(4-Chloro-2-(4-methyl-4H-1,2,4-triazol-3-yl)phenyl)-2-(6-chloro-4-(1-((cyclo-propylmethyl)amino)ethyl)pyridin-2-yl)isoindolin-1-one], in that order: below 80 nM and below 300 nM.
For `Cn1cnnc1-c1cc(Cl)ccc1-c1ccc2c(c1)C(=O)N(c1cc(CNC[C@@H]3CCCO3)cc(Cl)n1)C2` (single isomer, unassigned) [Compound 123, 6-(4-Chloro-2-(4-methyl-4H-1,2,4-triazol-3-yl)phenyl)-2-(6-chloro-4-((((tetra-hydrofuran-2-yl)methyl)amino)methyl)pyridin-2-yl)isoindolin-1-one], in that order: below 80 nM and 300 to 1000 nM.
As for `Cn1cnnc1-c1cc(Cl)ccc1-c1ccc2c(c1)C(=O)N(c1cc(CNC[C@H]3CCCO3)cc(Cl)n1)C2` (single isomer, unassigned) [Compound 124, 6-(4-Chloro-2-(4-methyl-4H-1,2,4-triazol-3-yl)phenyl)-2-(6-chloro-4-((((tetra-hydrofuran-2-yl)methyl)amino)methyl)pyridin-2-yl)isoindolin-1-one], the IC50 in assay [1] is below 80 nM. Moreover, the EC50 in assay [2] is below 300 nM.
With `Cc1cc([C@H](C)NC2CCCC2)cc(N2Cc3ccc(-c4ccc(Cl)cc4-c4nncn4C)cc3C2=O)n1` (single isomer, unassigned) [Compound 125, 6-(4-Chloro-2-(4-methyl-4H-1,2,4-triazol-3-yl)phenyl)-2-(4-(1-(cyclopentyl-amino)ethyl)-6-methylpyridin-2-yl)isoindolin-1-one], in assay [1], the 50% inhibitory concentration (IC50) was below 80 nM. Besides, the EC50 in assay [2] is below 300 nM.
For `Cc1cc([C@@H](C)NC2CCCC2)cc(N2Cc3ccc(-c4ccc(Cl)cc4-c4nncn4C)cc3C2=O)n1` (single isomer, unassigned) [Compound 126, 6-(4-Chloro-2-(4-methyl-4H-1,2,4-triazol-3-yl)phenyl)-2-(4-(1-(cyclopentyl-amino)ethyl)-6-methylpyridin-2-yl)isoindolin-1-one], in that order: below 80 nM and below 300 nM.
For `C[C@@H](Cc1nncn1C)c1ccc2c(c1)C(=O)N(c1cc(CNCC3CC3)cc(Cl)n1)C2` (single isomer, unassigned) [Compound 160], the half-inhibitory concentration (IC50) in assay [1] is below 80 nM. Further, the half-maximal effective concentration (EC50) in assay [2] fell in the range of 300 to 1000 nM.
In the case of `C[C@H](Cc1nncn1C)c1ccc2c(c1)C(=O)N(c1cc(CNCC3CC3)cc(Cl)n1)C2` (single isomer, unassigned) [Compound 161], the IC50 in assay [1] was below 80 nM. Also, the EC50 in assay [2] lay within 300 to 1000 nM.
For `C[C@@H](Cc1nncn1C)c1ccc2c(c1)C(=O)N(c1cc(CNCCC(F)(F)F)cc(Cl)n1)C2` (single isomer, unassigned) [Compound 163], in that order: below 80 nM and 300 to 1000 nM.
As for `C[C@H](Cc1nncn1C)c1ccc2c(c1)C(=O)N(c1cc(CNCCC(F)(F)F)cc(Cl)n1)C2` (single isomer, unassigned) [Compound 164], the IC50 in assay [1] was below 80 nM. Besides, the half-maximal effective concentration (EC50) in assay [2] lay within 1000 to 10000 nM.
With `C[C@@H](NCC1CC1)c1cc(Cl)nc(N2Cc3ccc(C4(Cc5nncn5C)COC4)cc3C2=O)c1` (single isomer, unassigned) [Compound 166], in assay [1], the half-inhibitory concentration (IC50) is below 80 nM. Also, in assay [2], the EC50 was below 300 nM.
Turning to `C[C@H](NCC1CC1)c1cc(Cl)nc(N2Cc3ccc(C4(Cc5nncn5C)COC4)cc3C2=O)c1` (single isomer, unassigned) [Compound 167], in assay [1], the concentration for half-maximal inhibition (IC50) is below 80 nM. Moreover, the EC50 in assay [2] is below 300 nM.
For `C[C@H](Cc1nncn1C)c1ccc2c(c1)C(=O)N(c1cc(CNCC3CCC3)cc(Cl)n1)C2` (single isomer, unassigned) [Compound 170], in that order: below 80 nM and below 300 nM.
For `C[C@@H](Cc1nncn1C)c1ccc2c(c1)C(=O)N(c1cc(CNCC3CCC3)cc(Cl)n1)C2` (single isomer, unassigned) [Compound 171], in that order: below 80 nM and below 300 nM.
With `CC1CCC(C)N(Cc2cc(N3Cc4ccc(C5(Cc6nncn6C)COC5)cc4C3=O)nc(C(F)(F)F)c2)C1` (stereo not shown) [Compound 93, 2-(4-((2,5-Dimethylpiperidin-1-yl)methyl)-6-(trifluoromethyl)pyridin-2-yl)-6-(3-((4-methyl-4H-1,2,4-triazol-3-yl)methyl)oxetan-3-yl)isoindolin-1-one], the EC50 in assay [2] is 300 to 1000 nM.
As for `Cc1cc(NCC2CCCN2)cc(N2Cc3ccc(C4(Cc5nncn5C)COC4)cc3C2=O)n1` (stereo not shown) [Compound 336, 2-(6-Methyl-4-((pyrrolidin-2-ylmethyl)amino)pyridin-2-yl)-6-(3-((4-methyl-4H-1,2,4-triazol-3-yl)methyl)oxetan-3-yl)isoindolin-1-one], the concentration for half-maximal inhibition (IC50) in assay [1] lay in the range of 300 to 5000 nM.
Regarding `Cc1cc(CNC(CC(C)(C)O)C2CC2)cc(N2Cc3ccc(-c4ccc(F)cc4-c4nncn4C)cc3C2=O)n1` (stereo not shown) [Compound 338, 2-(4-(((1-Cyclopropyl-3-hydroxy-3-methylbutyl)amino)methyl)-6-methylpyridin-2-yl)-6-(4-fluoro-2-(4-methyl-4H-1,2,4-triazol-3-yl)phenyl)isoindolin-1-one], the IC50 in assay [1] fell in the range of 80 to 300 nM.
With `Cc1cc(CNCC2CCCCN2)cc(N2Cc3ccc(-c4ccc(F)cc4-c4nncn4C)cc3C2=O)n1` (stereo not shown) [Compound 339, 6-(4-Fluoro-2-(4-methyl-4H-1,2,4-triazol-3-yl)phenyl)-2-(6-methyl-4-(((piperidin-2-ylmethyl)amino)methyl)pyridin-2-yl)isoindolin-1-one], the IC50 in assay [1] was in the range of 300 to 5000 nM.
`CN(CCC(F)(F)F)Cc1cc(Cl)nc(N2Cc3ccc(C4(Cc5nncn5C)COC4)cc3C2=O)c1` [Compound 340, 2-(6-Chloro-4-((methyl(3,3,3-trifluoropropyl)amino)methyl)-pyridin-2-yl)-6-(3-((4-methyl-4H-1,2,4-triazol-3-yl)methyl)oxetan-3-yl)isoindolin-1-one]: the 50% inhibitory concentration (IC50) in assay [1] lay within 80 to 300 nM.

(Values after US20260226073A1 (AURIGENE ONCOLOGY LIMITED, priority 2023, published 2026).)
